Laboratory results published in patent publication US20120029187A1, “HALOALKYLSULFONANILIDE DERIVATIVE” (Nissan Chemical Industries, Ltd., priority 2009, published 2012).

How the values were obtained:
Type in all cases: in vivo
barnyardgrass [1] = assay: Test Example 1: herbicidal effects in preemergence treatment under submerged conditions; conditions: dose 2.52 g/a
Outline: (§1)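 Alluvial soil flooded to 4 cm depth; barnyardgrass, bulrush and ducksalad sown and 2.5-leaf rice seedlings transplanted. Same day, water-diluted emulsifiable concentrates applied to the water surface at set doses (g/a). Kept at 25–30 °C in greenhouse; effects scored 0–5 by mortality after three weeks.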

bulrush [2] = assay: as above; conditions: dose 2.52 g/a
Outline: as §1

ducksalad [3] = assay: as above; conditions: dose 2.52 g/a
Outline: as §1

transplanted rice = assay: Test Example 1: preemergence treatment under submerged conditions, effect on crop; conditions: dose 2.52 g/a
Outline: as §1

barnyardgrass [4] = assay: Test Example 2: herbicidal effects during the vegetation period under submerged conditions; conditions: treatment during the vegetation period under submerged conditions; dose 2.52 g/a
Outline: (§2)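 Barnyardgrass, bulrush and ducksalad were co-sown in alluvial soil flooded to 4 cm and grown in a greenhouse at 25 to 30° C. At the 1- or 2-leaf stage, water-diluted emulsifiable concentrates went onto the water surface at set doses (g/a). Herbicidal effect was scored three weeks later on a graded scale.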

bulrush [5] = assay: as above; conditions: treatment during the vegetation period under submerged conditions; dose 2.52 g/a
Outline: as §2

ducksalad [6] = assay: as above; conditions: treatment during the vegetation period under submerged conditions; dose 2.52 g/a
Outline: as §2

Italian ryegrass [7] = assay: Test Example 3: herbicidal effects in soil treatment; conditions: dose 6.3 g/a
Outline: (§3)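 Seeds were sown in sterilized diluvial soil and covered with about 1.5 cm of soil. Compounds, formulated as emulsifiable concentrates and diluted with water, were sprayed evenly over the soil surface at set doses in g/a. Herbicidal effect was scored on a rating scale three weeks later.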

barnyardgrass [8] = assay: as above; conditions: dose 6.3 g/a
Outline: as §3

common chickweed [9] = assay: as above; conditions: dose 6.3 g/a
Outline: as §3

common lambsquater [10] = assay: as above; conditions: dose 6.3 g/a
Outline: as §3

common ragweed [11] = assay: as above; conditions: dose 6.3 g/a
Outline: as §3

giant foxtail [12] = assay: as above; conditions: dose 6.3 g/a
Outline: as §3

large crabgrass [13] = assay: as above; conditions: dose 6.3 g/a
Outline: as §3

water foxtail [14] = assay: as above; conditions: dose 6.3 g/a
Outline: as §3

wild oat [15] = assay: as above; conditions: dose 6.3 g/a
Outline: as §3

corn [16] = assay: Test Example 3: soil treatment, effect on crop; conditions: dose 6.3 g/a
Description: (§4) Test on the Herbicidal Effects in Soil Treatment
(§5) Sterilized diluvial soil was put in plastic boxes with a length of 21 cm, a width of 13 cm and a depth of 7 cm, and seeds of barnyardgrass, large crabgrass, giant foxtail, wild oat, blackgrass, velvetleaf, common ragweed, redroot pigweed, common lambsquater, posumbu knotweed, common chickweed corn, soybean, rice, wheat and sugar beet were sown in spots and covered with an about 1.5 cm-thick soil layer. Emulsifiable concentrates containing compounds of the present invention formulated in accordance with Formulation Example 2 were uniformly applied to the soil surfaces at predetermined doses through a small sprayer after dilute with water. Three weeks after the application, the herbicidal effects against various plants were determined on the same evaluation scale as in Test Example 1.
(§6) A: barnyardgrass, B: bulrush, C: ducksalad, D: large crabgrass, E: giant foxtail, F: wild oat, G: water foxtail, H: Italian ryegrass, I: velvetleaf, J: common ragweed, K: redroot pigweed, L: common lambsquater, M: posumbu knotweed, N: common chickweed, O: beadstraw, a: transplanted rice, b: corn, c: soybean, d: direct-seeded rice, e: wheat, f: sugar beet.
(§7) The doses (g/a) represents the amounts in g per 1 are (a) applied after adjustment of concentration adjustment.

direct-seeded rice [17] = assay: Test Example 3: soil treatment, effect on crop; conditions: dose 6.3 g/a
Description: as §4, §5, §6, §7

soybean [18] = assay: Test Example 3: soil treatment, effect on crop; conditions: dose 6.3 g/a
Description: as §4, §5, §6, §7

sugar beet [19] = assay: Test Example 3: soil treatment, effect on crop; conditions: dose 6.3 g/a
Description: as §4, §5, §6, §7

wheat [20] = assay: Test Example 3: soil treatment, effect on crop; conditions: dose 6.3 g/a
Description: as §4, §5, §6, §7

Italian ryegrass [21] = assay: Test Example 4: herbicidal effect in foliage treatment; conditions: dose 6.3 g/a, three weeks after the application
Outline: (§8)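 Sowing in sterilized diluvial soil, ~1.5 cm cover; growth 14 d, 25–30° C greenhouse; foliar spray of water-diluted EC at predetermined g/a; scoring 3 wk later on graded scale.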

barnyardgrass [22] = assay: as above; conditions: dose 6.3 g/a, three weeks after the application
Outline: as §8

beadstraw = assay: as above; conditions: dose 6.3 g/a, three weeks after the application
Outline: as §8

common chickweed [23] = assay: as above; conditions: dose 6.3 g/a, three weeks after the application
Outline: as §8

common lambsquater [24] = assay: as above; conditions: dose 6.3 g/a, three weeks after the application
Outline: as §8

common ragweed [25] = assay: as above; conditions: dose 6.3 g/a, three weeks after the application
Outline: as §8

giant foxtail [26] = assay: as above; conditions: dose 6.3 g/a, three weeks after the application
Outline: as §8

large crabgrass [27] = assay: as above; conditions: dose 6.3 g/a, three weeks after the application
Outline: as §8

water foxtail [28] = assay: as above; conditions: dose 6.3 g/a, three weeks after the application
Outline: as §8

wild oat [29] = assay: as above; conditions: dose 6.3 g/a, three weeks after the application
Outline: as §8

corn [30] = assay: Test Example 4: foliage treatment, effect on crop; conditions: dose 6.3 g/a, three weeks after the application
Description: (§9) Test on the Herbicidal Effect in Foliage Treatment
as §5, with “chickweed,” for “chickweed”, “The boxes were placed in a greenhouse at 25 to 30° C. to grow the plants. After 14 days, emulsifiable” for “Emulsifiable”, “foliage” for “soil surfaces”, “diluted” for “dilute”
as §6, §7

direct-seeded rice [31] = assay: Test Example 4: foliage treatment, effect on crop; conditions: dose 6.3 g/a, three weeks after the application
Description: as §9
as §5, with “chickweed,” for “chickweed”, “The boxes were placed in a greenhouse at 25 to 30° C. to grow the plants. After 14 days, emulsifiable” for “Emulsifiable”, “foliage” for “soil surfaces”, “diluted” for “dilute”
as §6, §7

soybean [32] = assay: Test Example 4: foliage treatment, effect on crop; conditions: dose 6.3 g/a, three weeks after the application
Description: as §9
as §5, with “chickweed,” for “chickweed”, “The boxes were placed in a greenhouse at 25 to 30° C. to grow the plants. After 14 days, emulsifiable” for “Emulsifiable”, “foliage” for “soil surfaces”, “diluted” for “dilute”
as §6, §7

sugar beet [33] = assay: Test Example 4: foliage treatment, effect on crop; conditions: dose 6.3 g/a, three weeks after the application
Description: as §9
as §5, with “chickweed,” for “chickweed”, “The boxes were placed in a greenhouse at 25 to 30° C. to grow the plants. After 14 days, emulsifiable” for “Emulsifiable”, “foliage” for “soil surfaces”, “diluted” for “dilute”
as §6, §7

wheat [34] = assay: Test Example 4: foliage treatment, effect on crop; conditions: dose 6.3 g/a, three weeks after the application
Description: as §9
as §5, with “chickweed,” for “chickweed”, “The boxes were placed in a greenhouse at 25 to 30° C. to grow the plants. After 14 days, emulsifiable” for “Emulsifiable”, “foliage” for “soil surfaces”, “diluted” for “dilute”
as §6, §7

Compound: CCOC(=O)N(c1ccccc1CN1CCOCCC1=O)S(=O)(=O)C(F)(F)F [Compound V-2]
- A: barnyardgrass, herbicidal effect (evaluation scale 0-5) (barnyardgrass [1]): 5 (mortality of 90% or above (nearly complete death))
- B: bulrush, herbicidal effect (evaluation scale 0-5) (bulrush [2]): 5 (mortality of 90% or above (nearly complete death))
- C: ducksalad, herbicidal effect (evaluation scale 0-5) (ducksalad [3]): 5 (mortality of 90% or above (nearly complete death))
- a: transplanted rice, effect on crop (evaluation scale 0-5) (transplanted rice): 0 (mortality of less than 5% (almost ineffective))
- A: barnyardgrass, herbicidal effect (evaluation scale 0-5) (barnyardgrass [4]): 4 (mortality of at least 70% and less than 90%)
- B: bulrush, herbicidal effect (evaluation scale 0-5) (bulrush [5]): 5 (mortality of 90% or above (nearly complete death))
- C: ducksalad, herbicidal effect (evaluation scale 0-5) (ducksalad [6]): 5 (mortality of 90% or above (nearly complete death))
- herbicidal effect, H: Italian ryegrass (Italian ryegrass [7]): 0 (mortality of less than 5% (almost ineffective))
- herbicidal effect, A: barnyardgrass (barnyardgrass [8]): 4 (mortality of at least 70% and less than 90%)
- herbicidal effect, N: common chickweed (common chickweed [9]): 5 (mortality of 90% or above (nearly complete death))
- herbicidal effect, L: common lambsquater (common lambsquater [10]): 5 (mortality of 90% or above (nearly complete death))
- herbicidal effect, J: common ragweed (common ragweed [11]): 5 (mortality of 90% or above (nearly complete death))
- herbicidal effect, E: giant foxtail (giant foxtail [12]): 3 (mortality of at least 40% and less than 70%)
- herbicidal effect, D: large crabgrass (large crabgrass [13]): 1 (mortality of at least 5% and less than 20%)
- herbicidal effect, G: water foxtail (water foxtail [14]): 5 (mortality of 90% or above (nearly complete death))
- herbicidal effect, F: wild oat (wild oat [15]): 0 (mortality of less than 5% (almost ineffective))
- effect on crop, b: corn (corn [16]): 0 (mortality of less than 5% (almost ineffective))
- effect on crop, d: direct-seeded rice (direct-seeded rice [17]): 0 (mortality of less than 5% (almost ineffective))
- effect on crop, c: soybean (soybean [18]): 0 (mortality of less than 5% (almost ineffective))
- effect on crop, f: sugar beet (sugar beet [19]): 4 (mortality of at least 70% and less than 90%)
- effect on crop, e: wheat (wheat [20]): 0 (mortality of less than 5% (almost ineffective))
- H: Italian ryegrass, herbicidal effect (Italian ryegrass [21]): 0 (mortality of less than 5% (almost ineffective))
- A: barnyardgrass, herbicidal effect (barnyardgrass [22]): 5 (mortality of 90% or above (nearly complete death))
- O: beadstraw, herbicidal effect (beadstraw): 3 (mortality of at least 40% and less than 70%)
- N: common chickweed, herbicidal effect (common chickweed [23]): 4 (mortality of at least 70% and less than 90%)
- L: common lambsquater, herbicidal effect (common lambsquater [24]): 5 (mortality of 90% or above (nearly complete death))
- J: common ragweed, herbicidal effect (common ragweed [25]): 5 (mortality of 90% or above (nearly complete death))
- E: giant foxtail, herbicidal effect (giant foxtail [26]): 4 (mortality of at least 70% and less than 90%)
- D: large crabgrass, herbicidal effect (large crabgrass [27]): 2 (mortality of at least 20% and less than 40%)
- G: water foxtail, herbicidal effect (water foxtail [28]): 5 (mortality of 90% or above (nearly complete death))
- F: wild oat, herbicidal effect (wild oat [29]): 0 (mortality of less than 5% (almost ineffective))
- b: corn, effect on crop (corn [30]): 1 (mortality of at least 5% and less than 20%)
- d: direct-seeded rice, effect on crop (direct-seeded rice [31]): 3 (mortality of at least 40% and less than 70%)
- c: soybean, effect on crop (soybean [32]): 3 (mortality of at least 40% and less than 70%)
- f: sugar beet, effect on crop (sugar beet [33]): 3 (mortality of at least 40% and less than 70%)
- e: wheat, effect on crop (wheat [34]): 0 (mortality of less than 5% (almost ineffective))
